Test results: PMC7830757, “An Anti-Inflammatory 2,4-Cyclized-3,4-Secospongian Diterpenoid and Furanoterpene-Related Metabolites of a Marine Sponge Spongia sp. from the Red Sea” (Marine Drugs, 2021)
Where two headings read alike, the source gives them in different places.

What was measured:
[1] = test system: fMLF/CB-induced human neutrophils (elastase release); assay: Elastase release in fMLF/CB-induced human neutrophils; assay type: cell-based; details: Neutrophil; for inhibition at 10 µM: Homo sapiens, percentage of inhibition at 10 μM, read-out: Elastase Inh %; for IC50: fMLF/CB-induced human neutrophils
Method: (§1) Human neutrophils were isolated from the blood of healthy adult volunteers and enriched by using dextran sedimentation, Ficoll–Hypaque gradient centrifugation, and hypotonic lysis, as described previously. Then, neutrophils were incubated in Ca^2+-free HBSS buffer (pH 7.4, ice-cold).
Neutrophils (6 × 10^5 cells/mL) incubated (with 100 μM MeO-Suc-Ala-Ala-Pro-Val-p- nitroanilide and 1 mM Ca^2+) in HBSS at 37 °C were treated with DMSO or the tested compound for 5 min. Neutrophils were, then, activated with fMLF (100 nM)/CB (0.5 μg/mL) for 10 min. The change of elastase release was spectrophotomically measured at 405 nm (U-3010, Hitachi, Tokyo, Japan).

[2] = test system: fMLF/CB-induced human neutrophils (superoxide anion generation); assay: Superoxide anion generation in fMLF/CB-induced human neutrophils; assay type: cell-based; details: Neutrophil; for inhibition at 10 µM: Homo sapiens, percentage of inhibition at 10 μM, read-out: Superoxide Anion Inh %; for IC50: fMLF/CB-induced human neutrophils
Method: as §1
Neutrophils (6 × 10^5 cells/mL) incubated (with 0.6 mg/mL ferricytochrome c and 1 mM Ca^2+) in HBSS at 37 °C were treated with DMSO (as control) or tested compound for 5 min. Neutrophils were primed by 1 μg/mL cytochalasin B (CB) for 3 min before being activated by 100 nM fMLF for 10 min. The change of superoxide anion generation was spectrophotomically measured at 550 nm (U-3010, Hitachi, Tokyo, Japan). LY294002 [2-(4-morpholinyl)-8-phenyl-1(4H)-benzopyran- 4-one] was used as a positive control.

[3] = mean ± SEM (n ≥ 3), read-out: Elastase IC50
[4] = mean ± SEM (n ≥ 3), read-out: Superoxide Anion IC50
[5] = dash per footnote b, read-out: Elastase IC50 (dash class)
[6] = dash per footnote b, read-out: Superoxide Anion IC50 (dash class)

`CC12CCC3C(C)(C1CCc1cocc12)C(O)C1(O)C(=O)OCC31C` (centres unmarked) [Compound 1, 17-dehydroxysponalactone] showed an inhibition at 10 µM ([1]; mean ± SEM (n ≥ 3)) of 90.3%, an IC50 [1, 3] of 4.07 µM and an inhibition at 10 µM ([2]; mean ± SEM (n ≥ 3)) of 91.4%. It also gave an IC50 [2, 4] of 3.37 µM.

`C/C(=C\CCc1ccoc1)CCC(=O)O` [Compound 2, (E)-7-(furan-3-yl)-4-methylhept-4-enoic acid] was tested, and the inhibition at 10 µM ([1]; mean ± SEM (n ≥ 3)) was 14%, the IC50 [1, 5] was greater than 10 µM and the inhibition at 10 µM ([2]; mean ± SEM (n ≥ 3)) was 3.47%. The IC50 [2, 6] was greater than 10 µM.

`C/C(=C\CC(=O)NO)CCCc1ccoc1` [Compound 3, spongiafuranohydroxamic acid A] was tested, and the inhibition at 10 µM ([1]; mean ± SEM (n ≥ 3)) was 18%, the IC50 [1, 5] was greater than 10 µM and the inhibition at 10 µM ([2]; mean ± SEM (n ≥ 3)) was 8.85%. The IC50 [2, 6] was greater than 10 µM.

`CC(=CCCc1ccoc1)CCC=C(C)CCC(O)C1(C)CCC(=O)O1` (stereo not drawn) [Compound 4, 16-epi-irciformonin G] showed an inhibition at 10 µM ([1]; mean ± SEM (n ≥ 3)) of -1.07%, an IC50 [1, 5] greater than 10 µM and an inhibition at 10 µM ([2]; mean ± SEM (n ≥ 3)) of 2.61%. The IC50 [2, 6] was greater than 10 µM.

In the case of `C/C(=C\CCc1ccoc1)CCC(=O)N[C@H]1CCOC1=O` [Compound 5, (−)-sponalisolide B], the inhibition at 10 µM ([1]; mean ± SEM (n ≥ 3)) is reported as 35.2%, the IC50 [1, 5] is reported as greater than 10 µM and the inhibition at 10 µM ([2]; mean ± SEM (n ≥ 3)) is reported as 67.1%. For the same compound, the IC50 [2, 4] was 5.31 µM.

With `CC1=C(O)C(=O)CC2(C)C1CCC1(CO)c3cocc3CCC12` (centres unmarked) [Compound 6, 18-nor-3,17-dihydroxyspongia-3,13(16),14-trien-2-one] the inhibition at 10 µM ([1]; mean ± SEM (n ≥ 3)) was 19.2%, the IC50 [1, 5] was greater than 10 µM and the inhibition at 10 µM ([2]; mean ± SEM (n ≥ 3)) was 9.44%. For the same compound, the IC50 [2, 6] was greater than 10 µM.

Work on `CC(C)CCC[C@@H](C)[C@H]1CC[C@H]2C3=CC(=O)[C@@]4(O)C[C@@H](O)CC[C@]4(C)[C@H]3CC[C@]12C` [Compound 7, cholesta-7-ene-3β,5α-diol-6-one] yielded an inhibition at 10 µM ([1]; mean ± SEM (n ≥ 3)) of 25.9%, an IC50 [1, 5] greater than 10 µM and an inhibition at 10 µM ([2]; mean ± SEM (n ≥ 3)) of 12.8%. The IC50 [2, 6] was greater than 10 µM.

In the case of `O=c1cc(N2CCOCC2)oc2c(-c3ccccc3)cccc12` [LY294002, 2-(4-morpholinyl)-8-phenyl-1(4H)-benzopyran-4-one, reference compound], the inhibition at 10 µM ([1]; mean ± SEM (n ≥ 3)) is reported as 77.6%, the IC50 [1, 3] is reported as 2.58 µM and the inhibition at 10 µM ([2]; mean ± SEM (n ≥ 3)) is reported as 90.3%. The IC50 [2, 4] was 1.88 µM.
